Experiments:
HCC2429 cells = experiment: CellTiter-Glo cell viability assay; format: cell-based; settings: Homo sapiens, HCC2429, 72 h; treatment for 3 days
Method: PDAC cell line PaTu8988T was obtained from ATCC and cultured in Dulbecco’s modified Eagle’s medium (DMEM) containing 10% FBS, 25 mM glucose, […], 1 mM sodium pyruvate, and 1% penicillin–streptomycin. Nut midline carcinoma cell line HCC2429 was kindly provided by Lead Discovery Center GmbH (Dortmund, Germany) and was cultured in RPMI1640 medium containing 10% FBS, 2 mM L-glutamine, and 1% penicillin–streptomycin. Cell line PaTu8988T was authenticated using the Multiplex human Cell line Authentication Test (MCA) by Multiplexion GmbH, and cell line HCC2429 was authenticated using short tandem repeat (STR) profiling.
The assays were performed using Promega’s CellTiter-Glo Luminescent Cell Viability Assay kit (Cat. #G7571). First, compounds dissolved in DMSO were printed in 96-well plates (Corning) by using a Tecan D300e digital dispenser. Then, cells were seeded into the compound-printed plates using a Thermo Multidrop reagent dispenser. 72 h later, one volume of diluted CellTiter-Glo reagent (1:4 dilution with PBS) was added to individual wells by using the Thermo Multidrop reagent dispenser again. Plates were shaken for 2 min and incubated for 10 min in the dark. Luminescent signals were read by using a Tecan Spark Multimode Microplate Reader. The values were normalized to the DMSO control wells and presented as a percentage of cell viability. Dose–response curves were drawn with GraphPad Prism 8.

[1] = system: histone H3 K9/K14 acetylation in PaTu8988T cells; experiment: Western blot of histone H3 K9/K14 acetylation; format: cell-based; settings: 48 h, 1 μM inhibitor or concentration series
Method: Protein samples were prepared in RIPA buffer (9806S, Cell Signaling Technology) containing a protease inhibitor cocktail (Roche). Proteins were separated in SDS-polyacrylamide gels, transferred to nitrocellulose membranes with a Trans-Blot Turbo Transfer System (Bio-Rad), and incubated with antibodies dissolved in TBS buffer containing 5% BSA and 0.1% Tween20. The following primary antibodies were used: rabbit anti-β-actin (ab8227, Abcam) and rabbit antiacetyl-histone H3 (Lys9/Lys14; 9677, Cell Signaling Technology). Primary antibodies were recognized by a peroxidase-coupled secondary antibody (Jackson), and signals were detected by chemiluminescence.

BRPF1B = biological target: T1, BRPF1B (Homo sapiens, UniProt P55201); experiment: DSF bromodomain selectivity panel; format: binding; settings: 10 μM compound
T1 construct: purchased in-house (SGC Frankfurt recombinant bromodomain DSF panel)
Method: (§1) The effects of inhibitor binding on the apparent melting temperature of recombinant bromodomains were determined by DSF in a 96-well plate (Starlab) at a protein concentration of 2 μM with 10 μΜ compound in buffer containing 25 mM HEPES, pH 7.5, 150 mM NaCl, and 0.5 mM TCEP. […] Protein unfolding profiles were recorded using an MX3005P real-time qPCR instrument (Agilent; excitation/emission filters = 492/610 nm) while increasing the temperature from 25 to 95 °C at a heating rate of 3 °C/min. Tm values were calculated after fitting the fluorescence curves to the Boltzmann equation. Differences in melting temperature upon compound binding are given as ΔTm = Tm (protein with inhibitor) – Tm (protein with DMSO control). Measurements were performed in triplicates.

EP300A = biological target: T2, EP300A (Homo sapiens, UniProt Q09472); experiment: DSF bromodomain selectivity panel; format: binding; settings: 10 μM compound
T2 construct: purchased in-house (SGC Frankfurt recombinant bromodomain DSF panel)
Method: as §1

BRD9 = biological target: T3, BRD9 (Homo sapiens, UniProt Q9H8M2); experiment: DSF bromodomain selectivity panel; format: binding; settings: 10 μM compound
T3 construct: purchased in-house (SGC Frankfurt recombinant bromodomain DSF panel)
T3 sequence (Q9H8M2 whole entry): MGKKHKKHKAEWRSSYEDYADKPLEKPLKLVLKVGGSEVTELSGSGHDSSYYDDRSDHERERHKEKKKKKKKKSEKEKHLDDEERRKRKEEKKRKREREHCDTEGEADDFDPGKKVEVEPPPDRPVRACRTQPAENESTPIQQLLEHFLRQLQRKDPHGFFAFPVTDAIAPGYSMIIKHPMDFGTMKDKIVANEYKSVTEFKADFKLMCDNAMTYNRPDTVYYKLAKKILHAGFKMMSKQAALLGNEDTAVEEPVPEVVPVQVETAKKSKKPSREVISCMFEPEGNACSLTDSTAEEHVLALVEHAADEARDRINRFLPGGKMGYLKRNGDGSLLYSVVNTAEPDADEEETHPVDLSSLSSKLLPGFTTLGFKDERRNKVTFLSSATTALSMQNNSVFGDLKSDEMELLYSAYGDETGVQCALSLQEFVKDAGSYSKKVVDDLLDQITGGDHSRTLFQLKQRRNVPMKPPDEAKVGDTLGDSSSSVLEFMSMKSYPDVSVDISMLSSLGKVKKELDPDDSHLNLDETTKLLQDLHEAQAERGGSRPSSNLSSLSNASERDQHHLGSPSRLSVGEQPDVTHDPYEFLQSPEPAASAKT
Method: as §1

CREBBPA = biological target: T4, CREBBPA (Homo sapiens, UniProt Q92793); experiment: DSF bromodomain selectivity panel; format: binding; settings: 10 μM compound
T4 construct: purchased in-house (SGC Frankfurt recombinant bromodomain DSF panel)
Method: as §1

BRPF3 = biological target: T5, BRPF3 (Homo sapiens, UniProt Q9ULD4); experiment: DSF bromodomain selectivity panel; format: binding; settings: 10 μM compound
T5 construct: purchased in-house (SGC Frankfurt recombinant bromodomain DSF panel)
Method: as §1

TAF1 (1) = biological target: T6, TAF1 (1) (Homo sapiens, UniProt P21675); experiment: DSF bromodomain selectivity panel; format: binding; settings: 10 μM compound
T6 construct: TAF1 (1); purchased in-house (SGC Frankfurt recombinant bromodomain DSF panel)
T6 sequence (P21675 1397-1505 limits assumed): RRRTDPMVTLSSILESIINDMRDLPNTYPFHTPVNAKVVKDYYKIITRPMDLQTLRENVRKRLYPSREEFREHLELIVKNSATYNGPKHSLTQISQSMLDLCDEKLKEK
Method: as §1

BRD2 (1) = biological target: T7, BRD2 (1) (Homo sapiens, UniProt P25440); experiment: DSF bromodomain selectivity panel; format: binding; settings: 10 μM compound
T7 construct: BRD2 (1); purchased in-house (SGC Frankfurt recombinant bromodomain DSF panel)
T7 sequence (P25440 71-194 limits assumed): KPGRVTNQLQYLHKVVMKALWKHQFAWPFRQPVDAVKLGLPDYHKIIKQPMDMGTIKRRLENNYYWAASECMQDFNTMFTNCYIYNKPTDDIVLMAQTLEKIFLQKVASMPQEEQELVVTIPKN
Method: as §1

BRD1 = biological target: T8, BRD1 (Homo sapiens, UniProt O95696); experiment: DSF bromodomain selectivity panel; format: binding; settings: 10 μM compound
T8 construct: purchased in-house (SGC Frankfurt recombinant bromodomain DSF panel)
Method: as §1

TRIM33B = biological target: T9, TRIM33B (Homo sapiens, UniProt Q9UPN9); experiment: DSF bromodomain selectivity panel; format: binding; settings: 10 μM compound, construct containing tandem PHD-BD
T9 construct: purchased in-house (SGC Frankfurt recombinant bromodomain DSF panel)
T9 sequence (Q9UPN9 1-1110 isoform Q9UPN9-2): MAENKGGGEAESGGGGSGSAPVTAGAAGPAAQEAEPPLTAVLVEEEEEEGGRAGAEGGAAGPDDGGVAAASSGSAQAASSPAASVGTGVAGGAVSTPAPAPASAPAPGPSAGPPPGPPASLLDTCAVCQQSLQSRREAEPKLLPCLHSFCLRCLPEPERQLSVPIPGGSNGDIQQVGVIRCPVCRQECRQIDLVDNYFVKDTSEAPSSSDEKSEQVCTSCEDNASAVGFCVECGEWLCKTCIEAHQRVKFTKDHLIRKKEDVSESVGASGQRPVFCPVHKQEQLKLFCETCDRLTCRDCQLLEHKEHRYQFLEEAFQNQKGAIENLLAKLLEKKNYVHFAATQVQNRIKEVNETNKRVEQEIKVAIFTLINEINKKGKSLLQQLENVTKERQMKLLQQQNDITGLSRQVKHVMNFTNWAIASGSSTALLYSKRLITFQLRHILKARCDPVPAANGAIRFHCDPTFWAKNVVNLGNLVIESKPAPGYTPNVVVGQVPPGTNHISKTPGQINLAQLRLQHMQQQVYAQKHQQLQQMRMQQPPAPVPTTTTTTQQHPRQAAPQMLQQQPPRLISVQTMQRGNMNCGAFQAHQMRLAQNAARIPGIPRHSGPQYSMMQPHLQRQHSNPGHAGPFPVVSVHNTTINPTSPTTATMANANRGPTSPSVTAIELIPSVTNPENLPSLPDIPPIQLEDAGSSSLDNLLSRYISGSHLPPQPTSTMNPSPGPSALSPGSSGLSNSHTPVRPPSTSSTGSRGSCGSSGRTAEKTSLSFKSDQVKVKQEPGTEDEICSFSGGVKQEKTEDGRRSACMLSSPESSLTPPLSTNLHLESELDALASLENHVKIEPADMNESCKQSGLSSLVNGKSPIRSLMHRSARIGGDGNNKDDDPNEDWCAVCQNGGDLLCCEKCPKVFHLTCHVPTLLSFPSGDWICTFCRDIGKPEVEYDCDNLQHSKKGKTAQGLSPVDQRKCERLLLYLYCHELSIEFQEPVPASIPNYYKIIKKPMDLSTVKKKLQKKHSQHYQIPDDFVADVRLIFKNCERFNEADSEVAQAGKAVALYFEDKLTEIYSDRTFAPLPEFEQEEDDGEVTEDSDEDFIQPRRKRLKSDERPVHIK
Method: as §1

PCAFA = biological target: T10, PCAFA (Homo sapiens, UniProt Q92831); experiment: DSF bromodomain selectivity panel; format: binding; settings: 10 μM compound
T10 construct: purchased in-house (SGC Frankfurt recombinant bromodomain DSF panel)
T10 sequence (Q92831 whole entry): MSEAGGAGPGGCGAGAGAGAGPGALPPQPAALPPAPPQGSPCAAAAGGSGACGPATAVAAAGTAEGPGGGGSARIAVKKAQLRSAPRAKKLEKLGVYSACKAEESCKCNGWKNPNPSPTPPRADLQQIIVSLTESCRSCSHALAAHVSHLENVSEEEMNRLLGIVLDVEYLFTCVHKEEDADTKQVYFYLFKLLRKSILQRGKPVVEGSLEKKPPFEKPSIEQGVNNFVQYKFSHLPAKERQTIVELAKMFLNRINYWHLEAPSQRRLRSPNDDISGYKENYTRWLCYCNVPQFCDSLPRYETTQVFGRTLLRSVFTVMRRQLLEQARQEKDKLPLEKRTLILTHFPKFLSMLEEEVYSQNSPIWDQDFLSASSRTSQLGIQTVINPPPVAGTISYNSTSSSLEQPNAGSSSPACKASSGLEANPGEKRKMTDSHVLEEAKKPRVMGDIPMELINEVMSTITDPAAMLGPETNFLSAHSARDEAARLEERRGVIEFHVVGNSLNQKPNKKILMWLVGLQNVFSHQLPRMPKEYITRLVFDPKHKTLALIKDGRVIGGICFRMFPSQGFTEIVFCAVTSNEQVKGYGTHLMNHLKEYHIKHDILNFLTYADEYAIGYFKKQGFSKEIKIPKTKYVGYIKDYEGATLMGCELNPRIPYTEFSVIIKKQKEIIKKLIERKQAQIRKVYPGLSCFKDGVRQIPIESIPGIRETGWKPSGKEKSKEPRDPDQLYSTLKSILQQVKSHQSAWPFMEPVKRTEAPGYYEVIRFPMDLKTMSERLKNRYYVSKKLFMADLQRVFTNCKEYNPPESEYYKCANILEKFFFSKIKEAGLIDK
Method: as §1

TRIM24 = biological target: T11, TRIM24 (Homo sapiens, UniProt O15164); experiment: DSF bromodomain selectivity panel; format: binding; settings: 10 μM compound, construct containing tandem PHD-BD
T11 construct: purchased in-house (SGC Frankfurt recombinant bromodomain DSF panel)
T11 sequence (O15164 whole entry): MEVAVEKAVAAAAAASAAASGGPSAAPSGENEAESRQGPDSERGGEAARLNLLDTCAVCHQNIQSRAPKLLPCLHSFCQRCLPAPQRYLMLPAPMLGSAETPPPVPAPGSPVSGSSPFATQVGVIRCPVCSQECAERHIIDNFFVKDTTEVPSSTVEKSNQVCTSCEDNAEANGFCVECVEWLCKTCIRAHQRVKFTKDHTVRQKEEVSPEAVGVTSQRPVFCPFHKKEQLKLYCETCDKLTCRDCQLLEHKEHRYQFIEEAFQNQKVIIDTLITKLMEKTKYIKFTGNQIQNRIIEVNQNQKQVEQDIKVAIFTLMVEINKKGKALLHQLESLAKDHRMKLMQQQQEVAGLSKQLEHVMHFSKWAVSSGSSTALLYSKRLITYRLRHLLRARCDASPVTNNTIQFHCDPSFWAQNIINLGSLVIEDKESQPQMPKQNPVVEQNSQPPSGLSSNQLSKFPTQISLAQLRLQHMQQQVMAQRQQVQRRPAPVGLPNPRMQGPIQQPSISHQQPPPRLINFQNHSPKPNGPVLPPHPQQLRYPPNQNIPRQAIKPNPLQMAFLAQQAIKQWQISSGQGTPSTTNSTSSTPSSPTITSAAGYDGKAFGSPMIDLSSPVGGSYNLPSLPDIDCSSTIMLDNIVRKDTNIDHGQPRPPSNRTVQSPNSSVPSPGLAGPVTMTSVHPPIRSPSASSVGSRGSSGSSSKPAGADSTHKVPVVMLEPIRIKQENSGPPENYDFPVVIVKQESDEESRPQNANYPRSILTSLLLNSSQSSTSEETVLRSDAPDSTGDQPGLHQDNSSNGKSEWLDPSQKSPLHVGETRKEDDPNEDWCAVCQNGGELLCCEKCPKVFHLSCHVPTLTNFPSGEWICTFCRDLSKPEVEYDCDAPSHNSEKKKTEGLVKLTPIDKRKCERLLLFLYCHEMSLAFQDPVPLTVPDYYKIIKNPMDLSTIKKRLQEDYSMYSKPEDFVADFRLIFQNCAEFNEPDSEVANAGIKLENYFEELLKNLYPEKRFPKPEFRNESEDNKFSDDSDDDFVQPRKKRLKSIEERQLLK
Method: as §1

PB1A(3) = biological target: T12, PB1A(3) (Homo sapiens, UniProt Q86U86); experiment: DSF bromodomain selectivity panel; format: binding; settings: 10 μM compound
T12 construct: PB1A(3); purchased in-house (SGC Frankfurt recombinant bromodomain DSF panel)
T12 sequence (Q86U86 388-494 limits assumed): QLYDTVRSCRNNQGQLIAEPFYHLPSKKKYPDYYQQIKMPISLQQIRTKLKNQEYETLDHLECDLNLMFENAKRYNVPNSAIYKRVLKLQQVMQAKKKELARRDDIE
Method: as §1

PB1A(6) = biological target: T13, PB1A(6) (Homo sapiens, UniProt Q86U86); experiment: DSF bromodomain selectivity panel; format: binding; settings: 10 μM compound
T13 construct: PB1A(6); purchased in-house (SGC Frankfurt recombinant bromodomain DSF panel)
T13 sequence (Q86U86 773-914 limits assumed): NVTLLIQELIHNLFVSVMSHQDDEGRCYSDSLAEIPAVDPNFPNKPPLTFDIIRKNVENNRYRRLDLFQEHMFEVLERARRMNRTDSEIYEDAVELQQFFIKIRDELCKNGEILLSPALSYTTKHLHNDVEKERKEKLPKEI
Method: as §1

BRD3 (1) = biological target: T14, BRD3 (1) (Homo sapiens, UniProt Q15059); experiment: DSF bromodomain selectivity panel; format: binding; settings: 10 μM compound
T14 construct: BRD3 (1); purchased in-house (SGC Frankfurt recombinant bromodomain DSF panel)
T14 sequence (Q15059 24-144 limits assumed): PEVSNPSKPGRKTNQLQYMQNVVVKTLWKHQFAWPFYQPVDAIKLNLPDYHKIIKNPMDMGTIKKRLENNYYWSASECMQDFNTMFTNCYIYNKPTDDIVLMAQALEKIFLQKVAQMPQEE
Method: as §1

BRD2 (2) = biological target: T15, BRD2 (2) (Homo sapiens, UniProt P25440); experiment: DSF bromodomain selectivity panel; format: binding; settings: 10 μM compound
T15 construct: BRD2 (2); purchased in-house (SGC Frankfurt recombinant bromodomain DSF panel)
T15 sequence (P25440 344-455 limits assumed): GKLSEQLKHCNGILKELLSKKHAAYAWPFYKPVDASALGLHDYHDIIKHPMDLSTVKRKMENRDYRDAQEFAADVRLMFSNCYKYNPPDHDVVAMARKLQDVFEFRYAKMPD
Method: as §1

WDR9A(1) = biological target: T16, WDR9A(1) (Homo sapiens, UniProt Q9NSI6); experiment: DSF bromodomain selectivity panel; format: binding; settings: 10 μM compound
T16 construct: WDR9A(1); purchased in-house (SGC Frankfurt recombinant bromodomain DSF panel)
T16 sequence (Q9NSI6 1150-1280 limits assumed): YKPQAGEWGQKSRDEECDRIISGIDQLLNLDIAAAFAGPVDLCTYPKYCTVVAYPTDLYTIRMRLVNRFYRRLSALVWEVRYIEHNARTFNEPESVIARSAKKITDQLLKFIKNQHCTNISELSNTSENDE
Method: as §1

BRDT(1) = biological target: T17, BRDT(1) (Homo sapiens, UniProt Q58F21); experiment: DSF bromodomain selectivity panel; format: binding; settings: 10 μM compound
T17 construct: BRDT(1); purchased in-house (SGC Frankfurt recombinant bromodomain DSF panel)
Method: as §1

TAF1LA (1) = biological target: T18, TAF1LA (1) (Homo sapiens, UniProt Q8IZX4); experiment: DSF bromodomain selectivity panel; format: binding; settings: 10 μM compound
T18 construct: TAF1LA (1); purchased in-house (SGC Frankfurt recombinant bromodomain DSF panel)
T18 sequence (Q8IZX4 1392-1522 limits assumed): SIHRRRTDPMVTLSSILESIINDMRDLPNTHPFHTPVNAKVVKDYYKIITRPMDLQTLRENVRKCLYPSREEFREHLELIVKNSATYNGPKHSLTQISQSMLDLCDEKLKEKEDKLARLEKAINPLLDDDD
Method: as §1

BAZ2B = biological target: T19, BAZ2B (Homo sapiens, UniProt Q9UIF8); experiment: DSF bromodomain selectivity panel; format: binding; settings: 10 μM compound
T19 construct: purchased in-house (SGC Frankfurt recombinant bromodomain DSF panel)
Method: as §1

ATAD2A = biological target: T20, ATAD2A (Homo sapiens, UniProt Q6PL18); experiment: DSF bromodomain selectivity panel; format: binding; settings: 10 μM compound
T20 construct: purchased in-house (SGC Frankfurt recombinant bromodomain DSF panel)
Method: as §1

Compound	IC50 (HCC2429 cells) [nM]	inhibition of histone H3 K9/K14 deacetylation (Western blot) [1]	Mean Tm BRPF1B (BRPF1B) [K]	Mean Tm EP300A (EP300A) [K]	Mean Tm BRD9 (BRD9) [K]	Mean Tm CREBBPA (CREBBPA) [K]	Mean Tm BRPF3 (BRPF3) [K]	Mean Tm TAF1 (1) (TAF1 (1)) [K]	Mean Tm BRD2 (1) (BRD2 (1)) [K]	Mean Tm BRD1 (BRD1) [K]	Mean Tm TRIM33B (TRIM33B) [K]	Mean Tm PCAFA (PCAFA) [K]	Mean Tm TRIM24 (TRIM24) [K]	Mean Tm PB1A(3) (PB1A(3)) [K]	Mean Tm PB1A(6) (PB1A(6)) [K]	Mean Tm BRD3 (1) (BRD3 (1)) [K]	Mean Tm BRD2 (2) (BRD2 (2)) [K]	Mean Tm WDR9A(1) (WDR9A(1)) [K]	Mean Tm BRDT(1) (BRDT(1)) [K]	Mean Tm TAF1LA (1) (TAF1LA (1)) [K]	also measured
Cn1cc(-c2ccc(C(=O)Nc3ccccc3N)nc2)c2cc[nH]c2c1=O [NB500]	220 ± 20	much less potent	–	–	–	–	–	–	–	–	–	–	–	–	–	–	–	–	–	–	–
Cn1cc(-c2ccc(C(=O)Nc3cc(-c4ccccc4)ccc3N)nc2)c2cc[nH]c2c1=O [NB512]	420 ± 50	more potent inhibitor overall	–	–	–	–	–	–	–	–	–	–	–	–	–	–	–	–	–	–	–
Cn1cc(-c2ccc(C(=O)Nc3cc(-c4ccccc4)ccc3N)cc2)c2cc[nH]c2c1=O [NB503]	630 ± 80	concentration-dependent	0.8 ± 0.3	1.0 ± 0.3	1.0 ± 0.8	1.4 ± 0.3	1.2 ± 0.1	1.0 ± 0.2	3.2 ± 0.5	1.1 ± 0.1	0.5 ± 0.0	1.9 ± 0.2	0.7 ± 0.5	0.0 ± 0.0	1.3 ± 0.1	3.8 ± 0.4	3.6 ± 0.4	0.0 ± 0.0	3.3 ± 0.1	0.6 ± 0.3	Mean Tm BAZ2B (BAZ2B): 1.4 ± 0.1 K; Mean Tm ATAD2A (ATAD2A): -1.3 ± 0.1 K
Cn1cc(-c2ccc(C(=O)Nc3ccccc3N)cc2)c2cc[nH]c2c1=O [NB462]	400 ± 30	significantly more potent than CI-944	0.8 ± 0.1	2.0 ± 0.3	5.2 ± 1.2	1.8 ± 0.3	-0.5 ± 0.1	0.4 ± 0.1	3.1 ± 0.5	0.2 ± 0.1	0.4 ± 0.1	0.1 ± 0.4	0.6 ± 0.1	0.5 ± 0.2	0.3 ± 0.1	3.8 ± 0.3	5.3 ± 0.1	-0.3 ± 0.2	3.0 ± 0.2	0.3 ± 0.1	Mean Tm BAZ2B (BAZ2B): 0.5 ± 0.0 K; Mean Tm ATAD2A (ATAD2A): 0.4 ± 0.2 K

From paper PMC10878397, “Development of Potent Dual BET/HDAC Inhibitors via Pharmacophore Merging and Structure-Guided Optimization” (ACS Chemical Biology, 2024)
